Paper PMC9481151, “Discovery of new symmetrical and asymmetrical nitrile-containing 1,4-dihydropyridine derivatives as dual kinases and P-glycoprotein inhibitors: synthesis, in vitro assays, and in silico studies” (Journal of Enzyme Inhibition and Medicinal Chemistry, 2022)
Converted amounts (≈) assume the structure as drawn. “And” between values parts separate entries of the source, which are not always exact repeats. Equal values may be shown once. Read-outs that look alike come from different tables or passages of the source.

What was measured:
K-562 = assay: NCI single dose (10 µM) SRB screen; format: cell-based, human; details: leukaemia, 48 h
SK-OV-3 = assay: NCI single dose (10 µM) SRB screen; format: cell-based, human; details: ovarian cancer, 48 h
CCRF-CEM = assay: NCI single dose (10 µM) SRB screen; format: cell-based, human; details: leukaemia, 48 h
A498 = assay: NCI single dose (10 µM) SRB screen; format: cell-based, human; details: renal cancer, 48 h
A. flavus = assay: MIC, two-fold microbroth dilution method; details: Aspergillus flavus, read-out: MIC (µg/mL) A. flavus
ACHN = assay: NCI single dose (10 µM) SRB screen; format: cell-based, human; details: renal cancer, 48 h
C. albicans = assay: MIC, two-fold microbroth dilution method; details: Candida albicans
SK-MEL-2 = assay: NCI single dose (10 µM) SRB screen; format: cell-based, human; details: melanoma, 48 h
Pseudomonas aeruginosa = assay: Agar well diffusion method; details: for zone of inhibition at 1000 µg/mL: Pseudomonas aeruginosa, 24 h, read-out: Diameter of inhibition zone, P. aeruginosa; for % activity index, P. aeruginosa: relative to ciprofloxacin
HCT-116 = assay: NCI single dose (10 µM) SRB screen; format: cell-based, human; details: colon cancer, 48 h
KM12 = assay: NCI single dose (10 µM) SRB screen; format: cell-based, human; details: colon cancer, 48 h
E. coli = assay: MIC, two-fold microbroth dilution method; details: Escherichia coli, read-out: MIC (µg/mL) E. coli
P. aeruginosa = assay: MIC, two-fold microbroth dilution method; details: Pseudomonas aeruginosa, read-out: MIC (µg/mL) P. aeruginosa
HT29 = assay: NCI single dose (10 µM) SRB screen; format: cell-based, human; details: colon cancer, 48 h
B. subtilis = assay: MIC, two-fold microbroth dilution method; details: Bacillus subtilis
SK-MEL-5 = assay: NCI single dose (10 µM) SRB screen; format: cell-based, human; details: melanoma, 48 h
MCF7 = assay: NCI single dose (10 µM) SRB screen; format: cell-based, human; details: breast cancer, 48 h
NCI-H460 = assay: NCI single dose (10 µM) SRB screen; format: cell-based, human; details: non-small cell lung cancer, 48 h
EKVX = assay: NCI single dose (10 µM) SRB screen; format: cell-based, human; details: non-small cell lung cancer, 48 h
OVCAR-5 = assay: NCI single dose (10 µM) SRB screen; format: cell-based, human; details: ovarian cancer, 48 h
S. aureus = assay: MIC, two-fold microbroth dilution method; details: Staphylococcus aureus
HL-60(TB) = assay: NCI single dose (10 µM) SRB screen; format: cell-based, human; details: leukaemia, 48 h
[1] = read-out: MIC (µg/mL) C. albicans
[2] = read-out: MIC (µg/mL) B. subtilis
[3] = read-out: MIC (µg/mL) S. aureus
[4] = 24 h, read-out: MIC, B. subtilis

SMILES	GI% K-562 (K-562)	GI% SK-OV-3 (SK-OV-3)	GI% CCRF-CEM (CCRF-CEM)	GI% A498 (A498)	MIC (A. flavus) [µg/mL]	GI% ACHN (ACHN)	MIC (C. albicans; [1]) [µg/mL]	GI% SK-MEL-2 (SK-MEL-2)	zone of inhibition at 1000 µg/mL (Pseudomonas aeruginosa) [mm]	% activity index, P. aeruginosa (Pseudomonas aeruginosa)	GI% HCT-116 (HCT-116)	GI% KM12 (KM12)	melting point [°C]	MIC (E. coli) [µg/mL]	MIC (P. aeruginosa) [µg/mL]	GI% HT29 (HT29)	MIC (B. subtilis; [2]) [µg/mL]	GI% SK-MEL-5 (SK-MEL-5)	GI% MCF7 (MCF7)	GI% NCI-H460 (NCI-H460)	further results
COCCOC(=O)C1=C(C)NC(C)=C(C(=O)OCCOC)C1c1cccc(C#N)c1 [Compound 1f, Di(2-methoxyethyl) 4-(3-cyanophenyl)-2,6-dimethyl-1,4-dihydropyridine-3,5-dicarboxylate]	– (Only GI% ≥ 10 are shown)	– (Only GI% ≥ 10 are shown)	– (Only GI% ≥ 10 are shown)	– (Only GI% ≥ 10 are shown)	16 (≈ 38.6 µM)	– (Only GI% ≥ 10 are shown)	16 (≈ 38.6 µM)	– (Only GI% ≥ 10 are shown)	17	73.9%	– (Only GI% ≥ 10 are shown)	– (Only GI% ≥ 10 are shown)	125 to 126	8 (≈ 19.3 µM)	16 (≈ 38.6 µM)	– (Only GI% ≥ 10 are shown)	2 (≈ 4.83 µM)	– (Only GI% ≥ 10 are shown)	– (Only GI% ≥ 10 are shown)	– (Only GI% ≥ 10 are shown)	GI% EKVX (EKVX): – (Only GI% ≥ 10 are shown); GI% OVCAR-5 (OVCAR-5): – (Only GI% ≥ 10 are shown); MIC (S. aureus; [3]): 4 µg/mL (≈ 9.65 µM); GI% HL-60(TB) (HL-60(TB)): 10%
CCOC(=O)C1=C(C)NC(C)=C(C(=O)OCCOC)C1c1cccc(C#N)c1 (racemic) [Compound 2k, (±)-3-Ethyl 5-(2-methoxyethyl) 4-(3-cyanophenyl)-2,6-dimethyl-1,4-dihydropyridine-3,5-dicarboxylate]	10%	– (Only GI% ≥ 10 are shown)	– (Only GI% ≥ 10 are shown)	21%	32 (≈ 83.2 µM)	– (Only GI% ≥ 10 are shown)	32 (≈ 83.2 µM)	– (Only GI% ≥ 10 are shown)	20	86.9%	– (Only GI% ≥ 10 are shown)	– (Only GI% ≥ 10 are shown)	133 to 134	4 (≈ 10.4 µM)	8 (≈ 20.8 µM)	– (Only GI% ≥ 10 are shown)	8 (≈ 20.8 µM)	– (Only GI% ≥ 10 are shown)	– (Only GI% ≥ 10 are shown)	– (Only GI% ≥ 10 are shown)	GI% EKVX (EKVX): – (Only GI% ≥ 10 are shown); GI% OVCAR-5 (OVCAR-5): – (Only GI% ≥ 10 are shown); MIC (S. aureus; [3]): 16 µg/mL (≈ 41.6 µM); GI% HL-60(TB) (HL-60(TB)): 12%
CCOC(=O)C1=C(C)NC(C)=C(C(=O)OC(C)(C)C)C1c1cccc(C#N)c1 (racemic) [Compound 2j, (±)-3-Tert-butyl 5-ethyl 4-(3-cyanophenyl)-2,6-dimethyl-1,4-dihydropyridine-3,5-dicarboxylate]	17%	– (Only GI% ≥ 10 are shown)	– (Only GI% ≥ 10 are shown)	– (Only GI% ≥ 10 are shown)	8 (≈ 20.9 µM)	– (Only GI% ≥ 10 are shown)	16 (≈ 41.8 µM)	– (Only GI% ≥ 10 are shown)	20	86% and 86.9%	13%	– (Only GI% ≥ 10 are shown)	152 to 153	1 (≈ 2.61 µM)	4 (≈ 10.5 µM)	– (Only GI% ≥ 10 are shown)	4 (≈ 10.5 µM)	– (Only GI% ≥ 10 are shown)	– (Only GI% ≥ 10 are shown)	– (Only GI% ≥ 10 are shown)	GI% EKVX (EKVX): 10%; GI% OVCAR-5 (OVCAR-5): – (Only GI% ≥ 10 are shown); MIC (S. aureus; [3]): 8 µg/mL (≈ 20.9 µM); GI% HL-60(TB) (HL-60(TB)): 19%
CCOC(=O)C1=C(C)NC(C)=C(C(=O)OC)C1c1cccc(C#N)c1 (racemic) [Compound 2g, (±)-3-Ethyl 5-methyl 4-(3-cyanophenyl)-2,6-dimethyl-1,4-dihydropyridine-3,5-dicarboxylate]	– (Only GI% ≥ 10 are shown)	– (Only GI% ≥ 10 are shown)	– (Only GI% ≥ 10 are shown)	– (Only GI% ≥ 10 are shown)	2 (≈ 5.88 µM)	– (Only GI% ≥ 10 are shown)	1 (≈ 2.94 µM)	– (Only GI% ≥ 10 are shown)	21	91% and 91.3%	– (Only GI% ≥ 10 are shown)	– (Only GI% ≥ 10 are shown)	151 to 153	1 (≈ 2.94 µM)	2 (≈ 5.88 µM)	– (Only GI% ≥ 10 are shown)	1 (≈ 2.94 µM)	– (Only GI% ≥ 10 are shown)	11%	– (Only GI% ≥ 10 are shown)	MIC (C. albicans; 24 h, read-out: MIC, C. albicans): 1 µg/mL (≈ 2.94 µM); MIC (B. subtilis; [4]): 1 µg/mL (≈ 2.94 µM); GI% EKVX (EKVX): – (Only GI% ≥ 10 are shown); GI% OVCAR-5 (OVCAR-5): – (Only GI% ≥ 10 are shown); MIC (S. aureus; 24 h, read-out: MIC, S. aureus): 0.5 µg/mL (≈ 1.47 µM); MIC (S. aureus; [3]): 0.5 µg/mL (≈ 1.47 µM); GI% HL-60(TB) (HL-60(TB)): – (Only GI% ≥ 10 are shown)
COC(=O)C1=C(C)NC(C)=C(C(=O)OC(C)C)C1c1cccc(C#N)c1 (racemic) [Compound 2a, (±)-3-Isopropyl 5-methyl 4-(3-cyanophenyl)-2,6-dimethyl-1,4-dihydropyridine-3,5-dicarboxylate]	16%	– (Only GI% ≥ 10 are shown)	– (Only GI% ≥ 10 are shown)	11%	8 (≈ 22.6 µM)	– (Only GI% ≥ 10 are shown)	4 (≈ 11.3 µM)	– (Only GI% ≥ 10 are shown)	19	82.6%	– (Only GI% ≥ 10 are shown)	– (Only GI% ≥ 10 are shown)	128 to 130	2 (≈ 5.64 µM)	4 (≈ 11.3 µM)	– (Only GI% ≥ 10 are shown)	2 (≈ 5.64 µM)	– (Only GI% ≥ 10 are shown)	– (Only GI% ≥ 10 are shown)	– (Only GI% ≥ 10 are shown)	MIC (B. subtilis; [4]): 2 µg/mL (≈ 5.64 µM); GI% EKVX (EKVX): – (Only GI% ≥ 10 are shown); GI% OVCAR-5 (OVCAR-5): – (Only GI% ≥ 10 are shown); MIC (S. aureus; 24 h, read-out: MIC, S. aureus): 1 µg/mL (≈ 2.82 µM); MIC (S. aureus; [3]): 1 µg/mL (≈ 2.82 µM); GI% HL-60(TB) (HL-60(TB)): 23%
